Legend:
[1] = Methylene blue degradation measured by UV-vis spectrophotometry; conditions: Example 1: H2O2 at 15 vol. %, TiO2 at various concentrations, no UV irradiation, measured every 3 minutes for one hour
Description: Methylene blue (MB) is a heterocyclic aromatic chemical compound with molecular formula: C16H18N3SCl (AldrichSigmaAldrich, Oslo, Norway). It has many uses in a range of different fields, such as biology and chemistry. […] A degradadation of MB therefore can be used as a model for the in vivo degradation of organic material, such as bacteria, or dead, damaged, and/or infected tissue. At room temperature it appears as a solid, odourless, dark green powder that yields a blue solution when dissolved in water. When degradated in solution, methylene blue becomes colourless. When methylene blue is analysed by UV-vis spectrophotometry (Lambda 25, Perkin Elmer, USA), it absorbs light at […]. This machine was used to quantify the degradation of MB.
The aim was to measure if methylene blue could be degradated by H2O2 (PERDROGEN® 30% H2O2 (w/w), Sigma Aldrich AS, Oslo, Norway) at 15% only, without TiO2 or UV irradiation. Then, an increasing concentration of TiO2 (Aeroxide P25, Evonik AG, Essen, Germany) was added to the solution until a maximum concentration of 8 g/L. The measurements were taken every 3 minutes for one hour. The pH of the suspension containing MB was also registered. The suspension was stirred prior to each measurement to prevent the deposition of the TiO2 particles. […]

[2] = pH of the suspension containing MB; type: physicochemical; conditions: Example 1: H2O2 at 15 vol. %, without or with TiO2
Method: The aim was to measure if methylene blue could be degradated by H2O2 (PERDROGEN® 30% H2O2 (w/w), Sigma Aldrich AS, Oslo, Norway) at 15% only, without TiO2 or UV irradiation. Then, an increasing concentration of TiO2 (Aeroxide P25, Evonik AG, Essen, Germany) was added to the solution until a maximum concentration of 8 g/L. The measurements were taken every 3 minutes for one hour. The pH of the suspension containing MB was also registered. The suspension was stirred prior to each measurement to prevent the deposition of the TiO2 particles.
The aim was to measure if methylene blue could be degradated by TiO2 nanoparticles only (Aeroxide P25, Evonik AG, Essen, Germany), without H2O2 or UV irradiation. Then, an increasing concentration of H2O2 (PERDROGEN® 30% H2O2 (w/w), Sigma Aldrich AS, Oslo, Norway) was added to the suspension until a maximum concentration of 15 vol. %. The procedure of the experiment was the same as explained in example 1.

Structure (SMILES): OO [H2O2 at 15 vol. %, H2O2]
- Methylene blue degradation [1]: Almost no degradation
- pH of the suspension containing MB [2]: 3.7

Reference: patent US20120308623A1, “COMPOSITION COMPRISING NANOPARTICLES OF TI02” (priority 2009, published 2012)
